Key:
mouse SGLT-2 = target: T1, mouse SGLT-2 (Mus musculus, UniProt Q923I7); experiment: Methyl-α-D-[U-14C]Glucopyranoside uptake assay for SGLT-2 in CHO-K1 cells expressing mSGLT-2; format: cell-based; settings: N.E. = Not Effective
T1 construct: Full-length mouse SGLT-2 cDNA was amplified from C57BL/6J mouse kidneys and introduced in the pcDNA3.1(+) expression vector; expressed in transfected cells
T1 sequence (Q923I7 1-670): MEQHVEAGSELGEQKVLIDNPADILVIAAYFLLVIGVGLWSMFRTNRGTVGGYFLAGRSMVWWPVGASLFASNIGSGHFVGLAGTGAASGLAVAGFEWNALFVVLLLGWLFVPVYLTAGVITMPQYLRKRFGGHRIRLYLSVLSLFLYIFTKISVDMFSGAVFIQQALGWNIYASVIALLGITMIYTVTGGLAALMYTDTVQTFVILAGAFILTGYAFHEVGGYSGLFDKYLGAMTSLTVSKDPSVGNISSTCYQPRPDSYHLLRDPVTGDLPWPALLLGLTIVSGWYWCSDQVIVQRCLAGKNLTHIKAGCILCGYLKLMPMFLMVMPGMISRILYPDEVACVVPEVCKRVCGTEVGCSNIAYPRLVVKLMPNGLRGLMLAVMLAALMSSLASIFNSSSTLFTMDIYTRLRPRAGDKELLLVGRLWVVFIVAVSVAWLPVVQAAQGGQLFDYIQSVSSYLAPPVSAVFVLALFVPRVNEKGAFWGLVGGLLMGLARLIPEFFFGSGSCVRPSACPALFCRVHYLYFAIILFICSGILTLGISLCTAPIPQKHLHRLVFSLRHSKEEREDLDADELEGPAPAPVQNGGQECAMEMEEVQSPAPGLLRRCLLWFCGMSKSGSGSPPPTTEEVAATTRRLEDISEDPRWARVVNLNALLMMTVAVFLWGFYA
Procedure: Preparation of Mouse SGLT-2 Expressing Cells
Full-length mouse SGLT-2 cDNA was amplified from C57BL/6J mouse kidneys and introduced in the pcDNA3.1(+) expression vector (Invitrogen, Inc.) and propagated in Escherichia coli strain DH5α using Luria-Bertani (LB) medium containing ampicillin. […] Stably transfected cells were selected using G418 antibiotic selection pressure.
Methyl-α-D-[U-^14C]Glucopyranoside Uptake Assay for SGLT-2
(§1) Cells expressing mSGLT-2 were seeded on 96-well tissue culture plates (Greiner, Inc.) in RPMI containing 10% FBS and 400 μg/mL G418 (0.8×10^5 cells per well in 200 μL medium) and incubated at 37° C. under 5% carbon dioxide for 24 h prior to the assay. Cells were washed twice with 200 μL of either sodium buffer (140 mM NaCl, 4.7 mM KCl, 2.2 mM CaCl2, 1.2 mM MgCl2, 10 mM Tris/Hepes, pH 7.4) or sodium-free buffer (137 mM N-methyl-glucamine, 4.7 mM KCl, 2.2 mM CaCl2, 1.2 mM MgCl2, 10 mM Tris/Hepes, pH 7.4). Reaction mixture containing test compounds at different concentrations diluted in assay buffer, 0.1 mM unlabeled Methyl-α-D-glucopyranoside and 1 μCi/well methyl-α-D[U-^14C]glucopyranoside (American Radiochemicals) was added per well of a 96-well plate and incubated at 37° C. for 1 h. Cells were washed thrice with 200 μL of wash buffer (140 mM NaCl, 4.7 mM KCl, 2.2 mM CaCl2, 1.2 mM MgCl2, 10 mM Tris/Hepes, pH 7.4 containing 500 μM phlorizin) and lysed using 50 μL of 0.25N NaOH. Methyl-α-D[U-^14C]glucopyranoside uptake was quantitated using a Top count scintillation counter (PerkinElmer, Inc.). All the test compounds were assayed in triplicates.

C57BL/6J mice = experiment: Estimation of urinary glucose in C57BL/6J mice; format: in vivo, mouse; settings: urine collected over 24 h
Procedure: Estimation of Urinary Glucose in C57BL/6J Mice
C57BL/6J mice were fasted 4 h before drug treatment. Fasted mice were weighed and randomized into different groups based on their body weight (n=6). At time T0 test compounds and standard compounds suspended in 0.25% CMC or PEG 400 formulation, were administered to respective groups and kept in metabolic cages (6 mice/cage) after dosing. Animals were fed after drug administration and urine was collected over a period of 24 h. Urinary volume was measured and urinary glucose was estimated using Merckotest Glucose Reagent (Merck Specialities Pvt. Ltd., India).

human SGLT-1 = target: T2, human SGLT-1 (Homo sapiens, UniProt P13866); experiment: Methyl-α-D-[U-14C]Glucopyranoside uptake assay for SGLT-1 in CHO-K1 cells expressing hSGLT-1; format: cell-based; settings: N.E. = Not Effective
T2 construct: Full-length human SGLT-1 cDNA in the pCMV-XL-Neo expression vector was obtained from Origene Corporation
T2 sequence (P13866 1-664): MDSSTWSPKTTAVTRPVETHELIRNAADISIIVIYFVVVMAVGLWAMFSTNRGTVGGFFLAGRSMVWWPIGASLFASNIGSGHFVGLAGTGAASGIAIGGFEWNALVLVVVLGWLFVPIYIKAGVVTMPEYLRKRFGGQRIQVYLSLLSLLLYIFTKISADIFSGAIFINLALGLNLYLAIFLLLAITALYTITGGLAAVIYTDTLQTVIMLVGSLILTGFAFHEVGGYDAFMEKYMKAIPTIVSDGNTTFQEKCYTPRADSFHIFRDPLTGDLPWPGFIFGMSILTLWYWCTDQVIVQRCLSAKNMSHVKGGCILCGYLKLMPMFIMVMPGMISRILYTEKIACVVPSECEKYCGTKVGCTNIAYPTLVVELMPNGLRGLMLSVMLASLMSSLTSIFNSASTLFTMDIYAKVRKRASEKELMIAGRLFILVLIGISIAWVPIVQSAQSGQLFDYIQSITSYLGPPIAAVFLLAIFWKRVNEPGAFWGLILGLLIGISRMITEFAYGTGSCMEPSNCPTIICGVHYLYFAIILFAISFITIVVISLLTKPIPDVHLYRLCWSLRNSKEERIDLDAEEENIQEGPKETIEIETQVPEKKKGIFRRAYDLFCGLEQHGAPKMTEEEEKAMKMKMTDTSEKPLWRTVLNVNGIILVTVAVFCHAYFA
Procedure: Preparation of Human SGLT-1 Expressing Cells
Full-length human SGLT-1 cDNA in the pCMV-XL-Neo expression vector was obtained from Origene Corporation and propagated in Escherichia coli strain DH5α using Luria-Bertani (LB) medium containing ampicillin. […] Stably transfected cells were selected using G418 antibiotic selection pressure.
Methyl-α-D-[U-^14C]Glucopyranoside Uptake Assay for SGLT-1
as §1, with “hSGLT-1” for “mSGLT-2”, “800 μg/ml” for “400 μg/mL”, “compounds” for “compounds at different concentrations”, “1” for “0.1”, “methyl-α-D-[U-^14C]glucopyranoside” for “methyl-α-D[U-^14C]glucopyranoside”, “Methyl-α-D-[U-^14C]glucopyranoside” for “Methyl-α-D[U-^14C]glucopyranoside”

Rats = experiment: Estimation of urinary glucose in rat; format: in vivo; settings: urine collected over 24 hrs
Procedure: Estimation of Urinary Glucose in Rat
Rats were fasted overnight (14 hrs) before drug treatment. Fasted rats were weighed and randomized into different groups based on their body weight (n=4). At time To test compounds and standard compound suspended in 0.25% C.M.C. or PEG 400 formulation were administered to respective groups and kept the animals in metabolic cages (1 rat/cage) after dosing. Animals were fed after drug administration and urine was collected over a period of 24 hrs. Urine volume was measured and urinary glucose was estimated using Merckotest Glucose Reagent (Merck Specialities Pvt. Ltd., India).

Substance	% inhibition of Methyl-α-D-[U-14C] Glucopyranoside uptake (CHO-K1 cells) mediated by SGLT-2 (mouse SGLT-2; 0.1 nM compound)	% inhibition of Methyl-α-D-[U-14C] Glucopyranoside uptake (CHO-K1 cells) mediated by SGLT-2 (mouse SGLT-2; 1 nM compound)	% inhibition of Methyl-α-D-[U-14C] Glucopyranoside uptake (CHO-K1 cells) mediated by SGLT-2 (mouse SGLT-2; 10 nM compound)	% inhibition of Methyl-α-D-[U-14C] Glucopyranoside uptake (CHO-K1 cells) mediated by SGLT-2 (mouse SGLT-2; 100 nM compound)	UGE in mice (in mg/g of feed consumed) at 3 mpk (C57BL/6J mice)	% inhibition of Methyl-α-D-[U-14C] Glucopyranoside uptake (CHO-K1 cells) mediated by SGLT-1 (human SGLT-1; 100 nM compound)	% inhibition of Methyl-α-D-[U-14C] Glucopyranoside uptake (CHO-K1 cells) mediated by SGLT-1 (human SGLT-1; 1 μM compound)	% inhibition of Methyl-α-D-[U-14C] Glucopyranoside uptake (CHO-K1 cells) mediated by SGLT-1 (human SGLT-1; 10 μM compound)	UGE in rat (in mg/g of feed consumed) at 3 mpk (Rats)
1-(4-(2-chloro-5-((1S,2S,3S,4R,5S)-2,3,4-trihydroxy-1-(hydroxymethyl)-6,8-dioxabicyclo[3.2.1]octan-5-yl)benzyl)phenyl)ethanone O-ethyl oxime [Compound 8]	N.E.	25.35%	72.44%	90.93%	60.6 mg/g of feed consumed	20.63%	55.66%	88.57%	–
1-(4-(2-chloro-5-((1S,2S,3S,4R,5S)-2,3,4-trihydroxy-1-(hydroxymethyl)-6,8-dioxabicyclo[3.2.1]octan-5-yl)benzyl)phenyl)ethanone O-methyl oxime [Compound 4]	–	–	–	–	76.2 mg/g of feed consumed	–	–	–	–
1-(4-(2-chloro-5-((1S,2S,3S,4R,5S)-2,3,4-trihydroxy-1-(hydroxymethyl)-6,8-dioxabicyclo[3.2.1]octan-5-yl)benzyl)phenyl)propan-1-one O-methyl oxime [Compound 3]	26.42%	26.10%	59.52%	93.34%	81.9 mg/g of feed consumed	N.E.	N.E.	63.64%	67.4 mg/g of feed consumed
